According to patent US7186521B2, “Determining the effect of a substance on sequestration, uptake, and accumulation of amyloid in brain cells” (The Regents of the University of California, priority 2000, dated 2007):
“Also recorded” adds a separate entry of the source. Ends that are not written are not given here.

Legend:
cathepsin D = assay: Cathepsin D immunoreactivity in cultured hippocampal slices; assay type: cell-based, Sprague-Dawley rat
Method: (§1) Organotypic hippocampal cultures were prepared using the technique of Stoppini et al. (1991). Briefly, hippocampi were harvested from brains of 9–12 days old Sprague-Dawley rat pups under sterile conditions. Sections were cut (400 μm thick) perpendicular to the long axis of hippocampus using a Mclllwain tissue chopper and were collected into a cutting medium consisting of MEM with Earle's salts (Gibco, Rockville Md.), 25 mM HEPES, 10 mM Tris base, 10 mM glucose, and 3 mM MgCl2 (pH 7.2). Slices were positioned onto 30 mm cell culture inserts (Millicell-CM, Millipore, Bedford, […].) that were placed in 6 well culture trays with 1 ml of growth medium per well [growth medium: MEM with Hank's salts (Gibco), 20% horse serum, 3 mM glutamine, 25 mM HEPES, 5 mM NaHCO3, 25 mM glucose, 0.5 mM ascorbate, 2 mM CaCl2, 2.5 mM MgCl2, 0.5 mg/1 insulin, and penicillin, pH 7.2]. The cultures were incubated at 35° C. with a 5% CO2-enriched atmosphere and the media was changed every other day until use 10–12 days later.
(§2) Cultured hippocampal slices were exposed to media containing the human Aβ1–42 sequence in the presence or absence of the integrin antagonist peptide, Gly-Arg-Gly-Asp-Ser-Pro, or GRGDSP (SEQ. ID. No.3) (2 mM dissolved in media) (Ruoslahti, E., Ann Rev Cell Dev Biol 12:697–715 (1996)). In some cases, slices were co-treated with the specific NMDA receptor antagonist 2-amino-5-phosphonovalerate (AP5) (Sigma) at 50 μM. Control slices in neighboring wells received media-vehicle only. Aβ1–42 peptide solution was freshly prepared before the start of the experiment using 0.1N NaOH, pH adjusted with 0.1N HCl to 7.4, and then diluted with serum-free culture medium. Aβ was applied at 30 μM for 8–10 hr after which it was diluted to 15 μM by the addition of fresh culture media containing heated treated horse serum. Treatment was repeated every other day for a total 6 days. Disintegrins are small (4–10 kDa) RGD-containing, cysteine-rich peptides from snake venom that bind integrins with high affinity (Kd˜1 nM–0.1 μM) and are potent antagonists of integrin functions (Huang, T. F., Cell Mol Life Sci 54:527–540 (1998)for review). In some experiments the disintegrin echistatin (2 μM dissolved in media) was applied instead of GRGDSP (SEQ. ID. No.3).
The following treatment, slices were thoroughly washed with 0.1M sodium phosphate buffered saline (PBS), fixed for 12–16 hr in cold 0.1M phosphate buffer (PB; pH 7.2) containing 4% paraformaldehyde, cryoprotected in 20% sucrose/PB for 1–2 hr and then carefully removed from the insert membranes. Serial sections were cut at 25 μm thick, parallel to the broad face of the explant, using a freezing microtome. […]

[1] = tested on: cultured hippocampal slices; assay: Aβ1–42 uptake/internalization in cultured hippocampal slices (Aβ1–42 immunocytochemistry, NIH Image quantification); assay type: cell-based, Sprague-Dawley rat; details: for slices with intraneuronal Aβ1–42 immunostaining: Aβ1–42 plus antagonist (GRGDSP 2 mM; echistatin 2 μM); for number of Aβ-ir particles within the sample field / size (average area) of individual Aβ-ir particles / total area encompassed by Aβ-ir elements: CA1b stratum pyramidale; for number of Aβ-ir particles within the sample field: Aβ1–42 plus antagonist vs Aβ alone (FIG. 4G), significant for GRGDSP only; for size (average area) of individual Aβ-ir particles / total area encompassed by Aβ-ir elements: Aβ1–42 plus antagonist; for size (average area) of individual Aβ-ir particles: mean±sem relative to Aβ alone (FIG. 4E); for total area encompassed by Aβ-ir elements: mean±sem relative to Aβ alone (FIG. 4F); for effect on sequestration/uptake/internalization of Aβ1–42: co-incubated with Aβ1–42, 6 days, GRGDSP and GRADSP 2 mM, echistatin 2 μM
Method: as §1, §2
(§3) The following treatment, slices were thoroughly washed with 0.1M sodium phosphate buffered saline (PBS), fixed for 12–16 hr in cold 0.1M phosphate buffer (PB; pH 7.2) containing 4% paraformaldehyde, cryoprotected in 20% sucrose/PB for 1–2 hr and then carefully removed from the insert membranes. Serial sections were cut at 25 μm thick, parallel to the broad face of the explant, using a freezing microtome. Immunocytochemistry was performed using the standard avidin biotin horseradish peroxidase complex (ABC) method using reagents and instructions of the VECTASTAIN® Elite ABC kit from Vector Laboratories (Burlingame, Calif.) with diaminobenzidine tetrahydrochloride (0.05% in 50 mM Tris-HCl buffer, pH 7.4) as chromagen and PBS for rinses and as diluent for antibody incubations. Briefly, free-floating sections were preincubated with 3% normal goat serum (for anti-Aβ1–42 and anti-cathepsin D antibodies) or 10% normal horse serum (for ED-1) in PBS for 1 hr at room temperature. […] Sections were washed in PBS, incubated in biotinylated anti-rabbit or anti-mouse IgG (both at 1:200) for 2–3 hr, washed in PBS, incubated in the avidin-biotin complex solution for 45 min and then processed through the diaminobenzidine reaction. After final rinses in PBS, sections were mounted on SuperFrost Plus slides (Fisher Scientific, Pittsburgh), air-dried, dehydrated in a series of graded ethanols, and coverslipped from Clearing Solvent (Stephens Scientific, Kalamazoo, Mich.) with Permount (Fisher).
Images centered on CA1b stratum pyramidale were obtained at 40× objective magnification using a Sony DKC-5000 digital camera attached to a Zeiss Universal microscope. […]

reactive microglia = assay: Microglial activation (ED-1 immunoreactivity) in cultured hippocampal slices; assay type: cell-based, Sprague-Dawley rat; details: for number of ED-1 positive cells: treatment by itself; for effect on ED-1-ir microglia: 50 μM AP5 with Aβ1–42 and 2 mM GRGDSP, 6 days
Method: as §1, §2
as §3, with “After final rinses in PBS, sections were mounted on SuperFrost Plus slides (Fisher Scientific, Pittsburgh), air-dried, dehydrated in a series of graded ethanols, and coverslipped from Clearing Solvent (Stephens Scientific, Kalamazoo, Mich.) with Permount (Fisher).” left out

[2] = tested on: LTP stabilization in field CA1 of hippocampus; details: injection of 5 μM echistatin; Chun et al., 2001; cited from earlier work
CHO cells = CHO cells in culture; Matter et al. 1998; cited from earlier work
[3] = tested on: integrin binding to fibronectin and vitronectin; details: literature; used as inactive control peptide; cited from earlier work
RGD-binding integrins = assay: cell-based or functional assay
[4] = treatment alone, 6 days (GRGDSP 2 mM)
[5] = treatment alone, 6 days, count of slices with Aβ-ir out of number of slices tested (Aβ 45, RGD 14)
[6] = Aβ + antagonist co-incubation, 6 days, count out of slices tested (61, 16, 21, 16), RGD and RAD 2 mM, Ech 2 μM
[7] = 50 μM AP5 with Aβ1–42 and 2 mM GRGDSP, 6 days

Aβ1–42: human amyloid beta peptide, 42-residue form, applied exogenously to slices
cathepsin D-ir (cathepsin D; [4]): did not cause substantial increases in cathepsin D-ir
slices with intraneuronal Aβ1–42 immunoreactivity (Aβ-ir) ([1]; Aβ1–42 alone, 6 days): 42%
Aβ positive cases [1, 5]: 19
number of ED-1 positive cells (reactive microglia): did not cause a noticeable increase in the number of ED-1 positive cells

echistatin (QCESGPCCRNCKFLKEGTICKRARGDDMDDYCNGKTCDCPRNPHKGPAT)
effect on LTP stabilization [2]: selectively disrupts LTP stabilization
slices with intraneuronal Aβ1–42 immunostaining ([1]; 6 days): 86%
Aβ positive cases [1, 6]: 18
number of Aβ-ir particles within the sample field [1]: increased the numbers of Aβ-ir particles
size (average area) of individual Aβ-ir particles [1]: +95±13%
total area encompassed by Aβ-ir elements [1]: 233±24%
effect on sequestration/uptake/internalization of Aβ1–42 [1]: significantly enhanced Aβ internalization; also recorded: increased the uptake of Aβ1–42 peptide

Gly-Arg-Gly-Asp-Ser-Pro [GRGDSP]
cathepsin D-ir (cathepsin D; Aβ1–42 plus 2 mM GRGDSP, 6 days): generated intense intraneuronal cathepsin D-ir; also recorded: elevated
cathepsin D-ir (cathepsin D; [4]): did not increase cathepsin D-ir
slices with intraneuronal Aβ1–42 immunostaining ([1]; 6 days): More than 88%
number of Aβ-ir particles within the sample field [1]: increased the numbers of Aβ-ir particles
size (average area) of individual Aβ-ir particles [1]: +101±13%
total area encompassed by Aβ-ir elements [1]: 324±16%
effect on sequestration/uptake/internalization of Aβ1–42 [1]: markedly increase sequestration of the exogenous peptide; also recorded: markedly enhances uptake in cultured hippocampal slices; also recorded: enhanced; also recorded: increased the uptake of Aβ1–42 peptide
induction of Aβ-ir ([1]; peptide by itself, without Aβ1–42): did not induce Aβ-ir
Aβ positive cases [1, 5]: 0
effect on binding and uptake of Aβ (CHO cells): block the binding and uptake of Aβ in CHO cells
microglial response (ED-1-ir) (reactive microglia; Aβ1–42 and GRGDSP applied together): produced a pronounced microglial response
number of ED-1 positive cells (reactive microglia): did not cause a noticeable increase in the number of ED-1 positive cells

NC(CCCP(=O)(O)O)C(=O)O (stereo not shown) [AP5, 2-amino-5-phosphonovalerate]
effect on cathepsin D-ir (cathepsin D; [7]): almost totally suppressed; also recorded: suppressed cathepsin D-ir
effect on GRGDSP-enhanced Aβ1–42 uptake [1, 7]: completely blocked Aβ1–42 uptake; also recorded: completely eliminated Aβ uptake
effect on ED-1-ir microglia (reactive microglia): ED-1-ir (C′) to vehicle control levels
effect on ED-1-ir microglia (reactive microglia; listed as AP-5): greatly reduced

GRADSP
antagonism of integrin binding to fibronectin and vitronectin [3]: very weak antagonist
Aβ positive cases [1, 6]: 9
number of Aβ-ir particles within the sample field [1]: did not cause significant changes
size (average area) of individual Aβ-ir particles [1]: did not cause significant changes
total area encompassed by Aβ-ir elements [1]: did not cause significant changes
effect on sequestration/uptake/internalization of Aβ1–42 [1]: did not measurably affect sequestration of Aβ1–42; also recorded: modest

GRADSP [inactive control peptide Gly-Arg-Ala-Asp-Ser-Pro (GRADSP)]
Aβ positive cases (slices with intraneuronal Aβ1-42 immunoreactivity), Aβ + RAD, of 16 slices tested (slices (of 16 tested)) (RGD-binding integrins): 9

GRGDSP [integrin antagonist peptide Gly-Arg-Gly-Asp-Ser-Pro (GRGDSP)]
Aβ positive cases (slices with intraneuronal Aβ1-42 immunoreactivity), Aβ + RGD, of 61 slices tested (slices (of 61 tested)) (RGD-binding integrins): 54
increase in size (mean area) of Aβ-ir elements in CA1 stratum pyramidale, relative to Aβ alone (RGD-binding integrins): 101%
total area encompassed by Aβ-immunoreactive elements, relative to Aβ alone (RGD-binding integrins): 324%
